The test system of this assay is normal and failing canine hearts. Description: Conscious dog pressure-volume hemodynamic analysis, normal and failing hearts. The format is in vivo. The source says: Dogs are studied in the conscious state before and after inducing dilated cardiomyopathy by tachypacing for two weeks at 200 bpm. […]
Load insensitive indexes of contractility (dP/dtmax/IP and PRSW) increased.

Setting [1] is: control and HF dogs, 10 mg/kg oral, two hours.

For `CN1C(=O)c2c(nn(Cc3ccc(-c4cccc(F)n4)cc3)c2Nc2ccccc2)N2C1=N[C@@H]1CCC[C@@H]12` [Compound 1, (6aR,9aS)-2-(4-(6-fluoropyridin-2-yl)benzyl)-5-methyl-3-(phenyl-amino)-5,6a,7,8,9,9a-hexahydrocyclopenta-[4,5]imidazo[1,2-a]pyrazolo[4,3-e]pyrimidin-4-(2H)-one monophosphate], the “hemodynamic responses in all but heart rate” value (0.01 mg/kg i.v.) is on record as “negligible”. The hemodynamic responses entry (0.1 mg/kg i.v.) is “positive chronotropic, inotropic, lusitropic, and vasodilator responses were observed”. For the setting “10 mg/kg Compound 1 added to 10 μg/kg/min dobutamine, control and failing hearts”, the “PV loop area (stroke work) and contractility” value is reported as “further enhanced both”. Moreover, the “increase in heart rate” value (HF animals, 10 mg/kg oral) is given as “blunted”. The “augmentation of cardiac output” value (HF dogs, 10 mg/kg oral, two hours) was found to be 32%. Moreover, under setting [1], the “LV preload (end-diastolic volume) or systolic pressure” value was “little change” and the “contractility (end-systolic elastance)” value is given as “increase in contractility”. Further, the “augmentation of cardiac output” value (control dogs, 10 mg/kg oral, two hours) came out at 50%. In addition, under “heart failure dogs, 0.1 mg/kg i.v.”, the “inotropy, lusitropy and vasodilation” value was “remained significantly improved”. Further, the “time to peak hemodynamic response” value (intravenous, normal and HF dogs) lay within 5 to 10 min. In addition, where the note is “normal dogs, 10 mg/kg oral”, the heart rate entry is on record as “increased heart rate”; the “relaxation (dP/dtmin and relaxation time constant tau)” value is recorded as “improved”; the systemic vascular resistance result is “reduced systemic vascular resistance”; the systolic blood pressure entry is on record as “without altering systolic blood pressure”.
